Source: patent US20250051344A1, “BIFUNCTIONAL SELECTIVE DEGRADERS OF SMARCA2 AND THERAPEUTIC USES THEREOF” (Nurix Therapeutics, Inc., priority 2023, published 2025)

Tests used:
[1] = target: T1, SMARCA2 (Homo sapiens, UniProt P51531); experiment: SMARCA2 Cellular Degradation Assay (Western blot analysis on Jess platform); assay type: cell-based; conditions: for DC50 / Dmax: cellular degradation; for Fold Selectivity SMARCA4/2: ratio DC50 SMARCA4 / DC50 SMARCA2
T1 construct: endogenous in cells
How it was run: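 Percent SMARCA2 remaining relative to vehicle was derived from capillary Western peak areas, each normalized to β-actin after capillary background subtraction. Samples were tumor-derived cell lysates, 5 μg total protein loaded, heated at 95° C. for 5 minutes before the Jess run.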

[2] = target: T2, SMARCA4 (Homo sapiens, UniProt P51532); experiment: Cellular degradation assay, SMARCA4 (Table 1); assay type: cell-based
T2 construct: endogenous in cells
T2 sequence (P51532 whole entry, species assumed): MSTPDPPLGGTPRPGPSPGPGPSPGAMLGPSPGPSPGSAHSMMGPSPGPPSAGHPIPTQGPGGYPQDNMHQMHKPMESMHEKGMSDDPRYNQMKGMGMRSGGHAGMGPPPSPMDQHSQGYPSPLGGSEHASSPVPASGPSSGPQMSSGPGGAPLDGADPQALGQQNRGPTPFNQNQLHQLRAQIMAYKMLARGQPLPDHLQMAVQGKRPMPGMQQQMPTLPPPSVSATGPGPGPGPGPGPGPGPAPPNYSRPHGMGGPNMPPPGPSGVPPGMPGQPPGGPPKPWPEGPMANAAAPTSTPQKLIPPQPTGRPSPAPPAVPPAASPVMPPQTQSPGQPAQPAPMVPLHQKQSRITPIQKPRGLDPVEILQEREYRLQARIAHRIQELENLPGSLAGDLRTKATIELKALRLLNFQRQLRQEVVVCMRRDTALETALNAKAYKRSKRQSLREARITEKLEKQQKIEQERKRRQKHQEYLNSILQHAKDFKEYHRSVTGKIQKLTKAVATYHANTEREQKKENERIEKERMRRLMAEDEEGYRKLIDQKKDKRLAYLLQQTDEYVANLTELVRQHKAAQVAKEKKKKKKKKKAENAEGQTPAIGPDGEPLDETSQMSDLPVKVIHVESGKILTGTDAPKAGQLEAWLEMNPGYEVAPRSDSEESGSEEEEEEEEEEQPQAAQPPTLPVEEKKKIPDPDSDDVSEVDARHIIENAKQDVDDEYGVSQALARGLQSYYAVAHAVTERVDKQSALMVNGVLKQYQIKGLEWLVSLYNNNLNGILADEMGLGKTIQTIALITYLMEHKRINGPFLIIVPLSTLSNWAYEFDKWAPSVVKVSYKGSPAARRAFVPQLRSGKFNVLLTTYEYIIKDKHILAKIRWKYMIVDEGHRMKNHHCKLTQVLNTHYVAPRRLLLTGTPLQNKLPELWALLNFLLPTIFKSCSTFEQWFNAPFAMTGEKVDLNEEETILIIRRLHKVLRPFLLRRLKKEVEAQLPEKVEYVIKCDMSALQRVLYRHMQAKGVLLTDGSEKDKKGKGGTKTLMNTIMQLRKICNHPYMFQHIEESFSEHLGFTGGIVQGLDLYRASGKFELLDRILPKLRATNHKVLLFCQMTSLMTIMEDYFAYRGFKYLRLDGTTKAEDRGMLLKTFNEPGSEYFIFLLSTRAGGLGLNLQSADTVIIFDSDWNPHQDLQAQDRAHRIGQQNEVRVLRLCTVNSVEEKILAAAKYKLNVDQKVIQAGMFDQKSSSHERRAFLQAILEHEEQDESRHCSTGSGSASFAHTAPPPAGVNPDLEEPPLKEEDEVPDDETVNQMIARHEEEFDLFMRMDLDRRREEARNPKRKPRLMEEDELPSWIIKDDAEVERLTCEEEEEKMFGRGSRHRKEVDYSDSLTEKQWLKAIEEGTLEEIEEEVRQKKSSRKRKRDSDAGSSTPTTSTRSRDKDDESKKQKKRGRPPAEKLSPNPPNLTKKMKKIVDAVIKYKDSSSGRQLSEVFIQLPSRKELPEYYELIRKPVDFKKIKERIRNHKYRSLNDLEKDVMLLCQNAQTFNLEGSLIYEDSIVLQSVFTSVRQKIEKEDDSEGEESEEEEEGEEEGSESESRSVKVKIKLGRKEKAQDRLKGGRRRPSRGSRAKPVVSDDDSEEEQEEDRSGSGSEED

T1 sequence (P51531 whole entry, species assumed): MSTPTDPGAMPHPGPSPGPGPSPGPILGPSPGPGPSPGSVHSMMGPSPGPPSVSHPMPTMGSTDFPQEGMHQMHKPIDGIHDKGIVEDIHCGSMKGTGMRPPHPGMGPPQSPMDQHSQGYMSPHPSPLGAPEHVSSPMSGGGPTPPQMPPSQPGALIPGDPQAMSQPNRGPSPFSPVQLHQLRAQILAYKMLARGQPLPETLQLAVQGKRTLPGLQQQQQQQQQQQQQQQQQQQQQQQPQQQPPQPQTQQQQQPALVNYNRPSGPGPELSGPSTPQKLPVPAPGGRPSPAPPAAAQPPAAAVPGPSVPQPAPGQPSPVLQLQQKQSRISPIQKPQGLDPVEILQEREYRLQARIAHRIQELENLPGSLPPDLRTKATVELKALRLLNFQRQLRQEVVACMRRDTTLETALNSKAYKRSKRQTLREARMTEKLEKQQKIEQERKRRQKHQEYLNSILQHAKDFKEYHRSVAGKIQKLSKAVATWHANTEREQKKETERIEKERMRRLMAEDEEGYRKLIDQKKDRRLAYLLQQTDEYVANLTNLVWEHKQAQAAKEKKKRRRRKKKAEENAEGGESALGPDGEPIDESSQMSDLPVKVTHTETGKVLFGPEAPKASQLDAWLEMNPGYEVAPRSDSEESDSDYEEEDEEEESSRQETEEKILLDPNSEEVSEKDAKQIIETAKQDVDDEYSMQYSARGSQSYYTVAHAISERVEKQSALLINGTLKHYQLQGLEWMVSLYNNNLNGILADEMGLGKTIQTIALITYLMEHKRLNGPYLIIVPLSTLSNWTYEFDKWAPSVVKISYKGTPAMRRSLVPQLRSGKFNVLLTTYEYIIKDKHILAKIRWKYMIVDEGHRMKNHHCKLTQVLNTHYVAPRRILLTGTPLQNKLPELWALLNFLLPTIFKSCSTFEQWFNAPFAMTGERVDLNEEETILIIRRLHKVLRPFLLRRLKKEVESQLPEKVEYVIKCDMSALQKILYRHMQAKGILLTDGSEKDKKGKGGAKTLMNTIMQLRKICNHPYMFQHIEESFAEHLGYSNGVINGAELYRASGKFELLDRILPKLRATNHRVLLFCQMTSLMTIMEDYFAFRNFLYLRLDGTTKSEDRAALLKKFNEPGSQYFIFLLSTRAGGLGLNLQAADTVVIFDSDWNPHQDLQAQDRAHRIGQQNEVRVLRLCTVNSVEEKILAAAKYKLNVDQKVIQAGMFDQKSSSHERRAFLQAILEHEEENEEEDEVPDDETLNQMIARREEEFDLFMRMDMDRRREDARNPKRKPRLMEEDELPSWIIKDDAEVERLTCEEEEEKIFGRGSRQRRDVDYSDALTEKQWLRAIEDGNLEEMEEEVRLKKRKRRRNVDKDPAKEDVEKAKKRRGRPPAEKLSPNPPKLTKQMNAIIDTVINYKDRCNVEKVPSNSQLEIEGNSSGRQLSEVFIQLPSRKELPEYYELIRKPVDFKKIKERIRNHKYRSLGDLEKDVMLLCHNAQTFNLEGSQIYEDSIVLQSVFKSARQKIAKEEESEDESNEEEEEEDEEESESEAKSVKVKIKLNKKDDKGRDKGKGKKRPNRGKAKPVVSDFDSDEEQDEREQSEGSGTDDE

| SMILES | DC50 [1] [nM] | Dmax [1] [%] | Fold Selectivity SMARCA4/2 [1] | Dmax [2] [%] | DC50 [2] [nM] |
| --- | --- | --- | --- | --- | --- |
| CC1(C(=O)N2CC3(CN(CC4CCN(c5ccc([C@H]6CCC(=O)NC6=O)cc5)CC4)C3)C2)CCN(c2cnnc(-c3ccccc3O)c2)CC1 [Example 23, (3R)-3-(4-{4-[(6-{1-[6-(2-hydroxyphenyl)pyridazin-4-yl]-4-methylpiperidine-4-carbonyl}-2,6-diazaspiro[3.3]heptan-2-yl)methyl]piperidin-1-yl}phenyl)piperidine-2,6-dione] | 78.5 | 55.9 | 127.44 | 39.1 |  |
| O=C1CCC(c2ccc(N3CCC(CN4CC5(C4)CN(CC4(c6ccccc6)CCN(c6cnnc(-c7ccccc7O)c6)CC4)C5)CC3)cc2)C(=O)N1 (racemic) [Example 44, rac-(3R)-3-[4-(4-{[6-({-[6-(2-hydroxyphenyl)pyridazin-4-yl]-4-phenylpiperidin-4-yl}methyl)-2,6-diazaspiro[3.3]heptan-2-yl]methyl}piperidin-1-yl)phenyl]piperidine-2,6-dione] | 6.22 | 86.6 | 3.95 | 77.5 | 24.6 |
| CN(C(=O)C1(c2ccnn2C)CCN(c2cnnc(-c3ccccc3O)c2)CC1)C1CCN(CCC2CCN(c3ccc(C4CCC(=O)NC4=O)cc3)CC2)CC1 (racemic) [Example 87, rac-N-{1-[2-(1-{4-[(3r)-2,6-dioxopiperidin-3-yl]phenyl}piperidin-4-yl)ethyl]piperidin-4-yl}-1-[6-(2-hydroxyphenyl)pyridazin-4-yl]-N-methyl-4-(1-methyl-1H-pyrazol-5-yl)piperidine-4-carboxamide] | 2.79 | 87.7 | 3583 | 22.5 |  |
| Cc1ccccc1C1(C(=O)N2CC3(CN(CC4CCN(c5ccc(C6CCC(=O)NC6=O)cc5)CC4)C3)C2)CCN(c2cnnc(-c3ccccc3O)c2)CC1 (racemic) [Example 33, rac-(3R)-3-(4-{4-[(6-{1-[6-(2-hydroxyphenyl)pyridazin-4-yl]-4-(2-methylphenyl)piperidine-4-carbonyl}-2,6-diazaspiro[3.3]heptan-2-yl)methyl]piperidin-1-yl}phenyl)piperidine-2,6-dione] | 11.7 | 78.9 | 6.16 | 56 | 71.9 |
| CC1CC2CN(CC3CCN(c4ccc([C@H]5CCC(=O)NC5=O)cc4)CC3)CC2N1C(=O)C1(c2ccccc2)CCN(c2cnnc(-c3ccccc3O)c2)CC1 (stereo partly drawn) [Example 50, (3R)-3-(4-{4-[(1-{1-[6-(2-hydroxyphenyl)pyridazin-4-yl]-4-phenylpiperidine-4-carbonyl}-2-methyl-hexahydropyrrolo[2,3-c]pyrrol-5-yl)methyl]piperidin-1-yl}phenyl)piperidine-2,6-dione] | 136 | 53.4 | 73.54 | 20.2 |  |
| O=C1CCC(c2ccc(N3CCC(CN4CC5(C4)CN(C(=O)C4(c6cccnc6)CCN(c6cnnc(-c7ccccc7O)c6)CC4)C5)CC3)cc2)C(=O)N1 (racemic) [Example 34, rac-(3R)-3-(4-{4-[(6-{1-[6-(2-hydroxyphenyl)pyridazin-4-yl]-4-(pyridin-3-yl)piperidine-4-carbonyl}-2,6-diazaspiro[3.3]heptan-2-yl)methyl]piperidin-1-yl}phenyl)piperidine-2,6-dione] | 47 | 58.6 | 212.72 | 30.6 |  |
| Cc1cc(C2(C(=O)N(C)C3CCN(CCC4CCN(c5ccc(C6CCC(=O)NC6=O)c(F)c5)CC4)CC3)CCN(c3cnnc(-c4ccccc4O)c3)CC2)on1 (racemic) [Example 60, rac-N-{1-[2-(1-{4-[(3R)-2,6-dioxopiperidin-3-yl]-3-fluorophenyl}piperidin-4-yl)ethyl]piperidin-4-yl}-1-[6-(2-hydroxyphenyl)pyridazin-4-yl]-N-methyl-4-(3-methyl-1,2-oxazol-5-yl)piperidine-4-carboxamide] | 3.79 | 85.7 | 2639 | 35.7 |  |
| CN(C(=O)C1(c2cc3ccccn3n2)CCN(c2cnnc(-c3ccccc3O)c2)CC1)C1CCN(CCC2CCN(c3ccc(C4CCC(=O)NC4=O)cc3)CC2)CC1 (racemic) [Example 77, rac-N-{1-[2-(1-{4-[(3R)-2,6-dioxopiperidin-3-yl]phenyl}piperidin-4-yl)ethyl]piperidin-4-yl}-1-[6-(2-hydroxyphenyl)pyridazin-4-yl]-N-methyl-4-{pyrazolo[1,5-a]pyridin-2-yl}piperidine-4-carboxamide] | 4.12 | 87 | 2427 | 44.2 |  |
| O=C1CCC(c2ccc(N3CCN(C(=O)CC4CCN(C(=O)C5(c6ccccc6)CCN(c6cnnc(-c7ccccc7O)c6)CC5)CC4)CC3)cc2)C(=O)N1 (racemic) [Example 18, rac-(3R)-3-(4-{4-[2-(1-{1-[6-(2-hydroxyphenyl)pyridazin-4-yl]-4-phenylpiperidine-4-carbonyl}piperidin-4-yl)acetyl]piperazin-1-yl}phenyl)piperidine-2,6-dione] |  | 44.1 | 1 | 27.7 |  |

Second part, the molecule after the results:

| DC50 [1] [nM] | Dmax [1] [%] | Fold Selectivity SMARCA4/2 [1] | Dmax [2] [%] | DC50 [2] [nM] | SMILES |
| --- | --- | --- | --- | --- | --- |
| 1.69 | 92.8 | 6 | 84.5 | 9.67 | COCCN(CC1(c2ccccc2)CCN(c2cnnc(-c3ccccc3O)c2)CC1)C(=O)C1CCN(CCC2CCN(c3ccc([C@@H]4CCC(=O)NC4=O)cc3)CC2)CC1 (racemic) [Example 145, rac-(r)-1-(2-(1-(4-(2,6-dioxopiperidin-3-yl)phenyl)piperidin-4-yl)ethyl)-n-((1-(6-(2-hydroxyphenyl)pyridazin-4-yl)-4-phenylpiperidin-4-yl)methyl)-n-(2-methoxyethyl)piperidine-4-carboxamide] |
| 5.55 | 86.7 | 10 | 58.1 | 57.9 | CC(C)c1cc(C2(C(=O)N(C)C3CCN(CC4CCN(c5ccc(C6CCC(=O)NC6=O)cc5)CC4)CC3)CCN(c3cnnc(-c4ccccc4O)c3)CC2)no1 (racemic) [Example 98, rac-N-{1-[(1-{4-[(3R)-2,6-dioxopiperidin-3-yl]phenyl}piperidin-4-yl)methyl]piperidin-4-yl}-1-[6-(2-hydroxyphenyl)pyridazin-4-yl]-N-methyl-4-[5-(propan-2-yl)-1,2-oxazol-3-yl]piperidine-4-carboxamide] |
| 3.4 | 92.4 | 34 | 66.4 | 115 | CCCN(C(=O)C1(c2ccccc2)CCN(c2cnnc(-c3ccccc3O)c2)CC1)C1CCN(CCC2CCN(c3ccc([C@H]4CCC(=O)NC4=O)cc3)CC2)CC1 [Example 100, N-{1-[2-(1-{4-[(3R)-2,6-dioxopiperidin-3-yl]phenyl}piperidin-4-yl)ethyl]piperidin-4-yl}-1-[6-(2-hydroxyphenyl)pyridazin-4-yl]-4-phenyl-n-propylpiperidine-4-carboxamide] |
| 4.91 | 78.3 | 7 | 59.4 | 32.2 | COc1ccccc1C1(C(=O)N2CC3(C2)CN(C2COC4(CCN(c5ccc([C@H]6CCC(=O)NC6=O)cc5)CC4)C2)C3)CCN(c2cnnc(-c3ccccc3O)c2)CC1 (mixture of isomers) [Example 106, (3R)-3-{4-[(3RS)-3-(6-{1-[6-(2-hydroxyphenyl)pyridazin-4-yl]-4-(2-methoxyphenyl)piperidine-4-carbonyl}-2,6-diazaspiro[3.3]heptan-2-yl)-1-oxa-8-azaspiro[4.5]decan-8-yl]phenyl}piperidine-2,6-dione] |
| 40.8 | 62 | 245 | 49.3 |  | O=C1CCC(c2ccc(N3CCC4(CCN(CC5CCN(C(=O)C6(c7ccccc7)CCN(c7cnnc(-c8ccccc8O)c7)CC6)CC5)C4)CC3)cc2)C(=O)N1 (racemic) [Example 163, rac-(3R)-3-(4-{2-[(1-{1-[6-(2-hydroxyphenyl)pyridazin-4-yl]-4-phenylpiperidine-4-carbonyl}piperidin-4-yl)methyl]-2,8-diazaspiro[4.5]decan-8-yl}phenyl)piperidine-2,6-dione] |
| 2.5 | 90.5 | 8 | 74.8 | 20.5 | COc1ccccc1C1(C(=O)N(C)C2CCN(CC3CCN(c4ccc([C@H]5CCC(=O)NC5=O)cc4)CC3)CC2)CCN(c2cnnc(-c3ccccc3O)c2)CC1 [Example 133, N-{1-[(1-{4-[(3R)-2,6-dioxopiperidin-3-yl]phenyl}piperidin-4-yl)methyl]piperidin-4-yl}-1-[6-(2-hydroxyphenyl)pyridazin-4-yl]-4-(2-methoxyphenyl)-n-methylpiperidine-4-carboxamide] |
| 28.5 | 69.5 | 35 | 41.4 | 1000 | N#CC1(CN2CCN(c3ccc([C@@H]4CCC(=O)NC4=O)cc3)CC2)CC12CCN(C(=O)C1(c3ccccc3)CCN(c3cnnc(-c4ccccc4O)c3)CC1)CC2 (mixture of isomers) [Example 171, rac-1-[(4-{4-[(3R)-2,6-dioxopiperidin-3-yl]phenyl}piperazin-1-yl)methyl]-6-{1-[6-(2-hydroxyphenyl)pyridazin-4-yl]-4-phenylpiperidine-4-carbonyl}-6-azaspiro[2.5]octane-1-carbonitrile] |
| 14.9 | 74.3 | 671 | 29.3 |  | O=C1CCC(c2ccc(N3CCC(CCN4CC5(C4)CN(C(=O)C4(OC6CCCCC6)CCN(c6cnnc(-c7ccccc7O)c6)CC4)C5)CC3)cc2)C(=O)N1 (racemic) [Example 121, rac-3-(4-(4-(2-(6-(4-(cyclohexyloxy)-1-(6-(2-hydroxyphenyl)pyridazin-4-yl)piperidine-4-carbonyl)-2,6-diazaspiro[3.3]heptan-2-yl)ethyl)piperidin-1-yl)phenyl)piperidine-2,6-dione] |
